Laboratory results taken from patent US10316035B2, “Triazolopyridine inhibitors of myeloperoxidase” (BRISTOL-MYERS SQUIBB COMPANY, priority 2015, dated 2019).

Target: T1, myeloperoxidase (MPO) (Homo sapiens, UniProt P05164)
T1 sequence (P05164 49-745): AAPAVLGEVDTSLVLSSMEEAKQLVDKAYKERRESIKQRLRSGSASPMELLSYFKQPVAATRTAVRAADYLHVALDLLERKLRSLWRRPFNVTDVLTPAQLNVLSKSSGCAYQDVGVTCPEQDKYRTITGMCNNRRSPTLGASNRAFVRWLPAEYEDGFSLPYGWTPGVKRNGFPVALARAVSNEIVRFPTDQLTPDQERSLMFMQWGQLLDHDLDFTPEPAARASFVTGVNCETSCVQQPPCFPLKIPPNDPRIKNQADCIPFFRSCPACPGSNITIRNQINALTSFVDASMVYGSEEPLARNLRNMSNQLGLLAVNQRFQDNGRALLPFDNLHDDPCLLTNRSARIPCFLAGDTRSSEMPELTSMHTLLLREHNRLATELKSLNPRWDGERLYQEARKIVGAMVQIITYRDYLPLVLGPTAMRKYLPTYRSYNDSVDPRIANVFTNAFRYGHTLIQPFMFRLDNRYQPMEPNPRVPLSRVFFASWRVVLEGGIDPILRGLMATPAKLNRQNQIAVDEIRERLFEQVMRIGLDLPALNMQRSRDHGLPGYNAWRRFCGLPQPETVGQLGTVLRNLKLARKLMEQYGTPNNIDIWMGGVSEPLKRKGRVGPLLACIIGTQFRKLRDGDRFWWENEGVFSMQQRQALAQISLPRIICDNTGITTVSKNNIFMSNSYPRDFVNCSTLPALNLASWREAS
Experiment: MPO peroxidation assay (Amplex Red assay)
Assay type: biochemical
Settings: not given
Experimental: MPO Peroxidation Assay (Amplex Red Assay)
MPO peroxidation activity was measured in 100 mM KPi (pH 7.4) by utilizing the non-fluorescent reagent Amplex Red (Invitrogen catalog # A12222) which can be oxidized to the highly fluorescent resorufin. Amplex Red is oxidized by the peroxidase action of MPO to resorufin. Reactions were carried out in 50 μL total volume by adding a 25 μL mixture of 200 pM myeloperoxidase and 40 nM H2O2(Sigma #349887) to 100 nL inhibitor in 100% DMSO in a 384 well Perkin Elmer Optiplate. Enzyme and compound were preincubated for ten minutes at room temperature.
After the ten minute preincubation, 25 μL of an Amplex Red mixture containing 200 μM Amplex Red and 10 mM H2O2 was added to the plate. Kinetic determinations were carried out immediately on a Perkin Elmer Envision (15 minute kinetic read, Ex: 535 nm, Em: 590 nm).
IC50 values were calculated by determining the slope of the linear portion of the kinetic trace ([…]), and using that calculated slope to determine % inhibition occurring at each concentration of inhibitor using the following equation:
[formula] where A=minimal Y value (activity level of inhibited sample), B=maximal Y value (activity level of uninhibited sample), C=Log IC50, D=Hill Slope, x=concentration of inhibitor. MPO Chlorination Assay (APF Assay)

| SMILES | IC50 |
| --- | --- |
| Cn1ccc(-c2cccc(COc3cc(N)nc4[nH]nnc34)c2)n1 [Example 5, 7-(3-(1-Methyl-1H-pyrazol-3-yl)benzyloxy)-3H-[1,2,3]triazolo[4,5-b]pyridin-5-amine] | 1 to 100 nM |
| Nc1cc(OCc2cccc(Cl)c2)c2nn[nH]c2n1 [Example 10, 7-(3-Chlorobenzyloxy)-3H-[1,2,3]triazolo[4,5-b]pyridin-5-amine] | 1 to 100 nM |
| Nc1cc(OCc2ccc(Cl)cc2)c2nn[nH]c2n1 [Example 11, 7-(4-Chlorobenzyloxy)-3H-[1,2,3]triazolo[4,5-b]pyridin-5-amine] | 1 to 100 nM |
| Nc1cc(OCc2ccccc2Cl)c2nn[nH]c2n1 [Example 12, 7-(2-Chlorobenzyloxy)-3H-[1,2,3]triazolo[4,5-b]pyridin-5-amine] | 1 to 100 nM |

Same assay, conditions: MPO peroxidation, potency range class; read-out: Amplex Red IC50

| SMILES | IC50 |
| --- | --- |
| CCC(F)(F)C(Oc1cc(N)nc2[nH]nnc12)c1ccccc1 (racemic) [Example 135, 7-(2,2-Difluoro-1-phenylbutoxy)-3H-[1,2,3]triazolo[4,5-b]pyridin-5-amine] | 101 to 999 nM |
| CCC(F)(F)C(Oc1cc(N)nc2[nH]nnc12)c1ccccc1OC (racemic) [Example 136, 7-(2,2-Difluoro-1-(2-methoxyphenyl)butoxy)-3H-[1,2,3]triazolo[4,5-b]pyridin-5-amine] | 101 to 999 nM |
| Nc1cc(OC(c2ccccc2)C(F)F)c2nn[nH]c2n1 (racemic) [Example 138, 7-(2,2-Difluoro-1-phenylethoxy)-3H-[1,2,3]triazolo[4,5-b]pyridin-5-amine] | 101 to 999 nM |
| CCC(F)(F)C(Oc1cc(N)nc2[nH]nnc12)c1ccccc1 (single isomer, unassigned) [Example 137, 7-(2,2-Difluoro-1-phenylbutoxy)-3H-[1,2,3]triazolo[4,5-b]pyridin-5-amine] | 1 to 100 nM |
| Nc1cc(OCc2ccc(OC(F)(F)F)cc2)c2nn[nH]c2n1 [Example 1, 7-(4-(Trifluoromethoxy)benzyloxy)-3H-[1,2,3]triazolo[4,5-b]pyridin-5-amine] | 1 to 100 nM |
| Nc1cc(OCc2cccc(-n3cncn3)c2)c2nn[nH]c2n1 [Example 3, 7-(3-(1H-1,2,4-Triazol-1-yl)benzyloxy)-3H-[1,2,3]triazolo[4,5-b]pyridin-5-amine] | 1 to 100 nM |
| Nc1cc(OCc2cccc(S(=O)(=O)N3CCOCC3)c2)c2nn[nH]c2n1 [Example 4, 7-(3-(Morpholinosulfonyl)benzyloxy)-3H-[1,2,3]triazolo[4,5-b]pyridin-5-amine] | 101 to 999 nM |
| Cc1nccn1-c1cccc(COc2cc(N)nc3[nH]nnc23)c1 [Example 7, 7-(3-(2-Methyl-1H-imidazol-1-yl)benzyloxy)-3H-[1,2,3]triazolo[4,5-b]pyridin-5-amine] | 101 to 999 nM |
| Nc1cc(OCc2cccc(OC(F)(F)F)c2)c2nn[nH]c2n1 [Example 13, 7-(3-(Trifluoromethoxy)benzyloxy)-3H-[1,2,3]triazolo[4,5-b]pyridin-5-amine] | 1 to 100 nM |
| Nc1cc(OCc2cccc(Oc3ccccc3)c2)c2nn[nH]c2n1 [Example 16, 7-(3-Phenoxybenzyloxy)-3H-[1,2,3]triazolo[4,5-b]pyridin-5-amine] | 101 to 999 nM |
| Nc1cc(OCc2ccc(OC(F)F)cc2)c2nn[nH]c2n1 [Example 17, 7-(4-(Difluoromethoxy)benzyloxy)-3H-[1,2,3]triazolo[4,5-b]pyridin-5-amine] | 101 to 999 nM |
| Nc1cc(OCc2ccccc2OCc2ccccc2)c2nn[nH]c2n1 [Example 20, 7-(2-(Benzyloxy)benzyloxy)-3H-[1,2,3]triazolo[4,5-b]pyridin-5-amine] | 1 to 100 nM |
| Nc1cc(OCc2ccccc2OC(F)(F)F)c2nn[nH]c2n1 [Example 21, 7-(2-(Trifluoromethoxy)benzyloxy)-3H-[1,2,3]triazolo[4,5-b]pyridin-5-amine] | 1 to 100 nM |
| COC(=O)c1cccc(COc2cc(N)nc3[nH]nnc23)c1 [Example 22, Methyl 3-((5-amino-3H-[1,2,3]triazolo[4,5-b]pyridin-7-yloxy)methyl)benzoate] | 1 to 100 nM |
